“Also recorded” adds a separate entry of the source.
Tests used:
[1] = test system: cospeptin receptors in the pituitary; test: Displacement of 125I-Tyr0-cospeptin E binding in pituitary (competition studies); set-up: species or system rat; settings: competition with 125I-Tyr0-cospeptin E
Description: (§1) Radiolabeling of cospeptin. Peptide iodination was performed according to the IODO-GEN procedure (Pierce, Upland, Ind.). The mixture of Tyr0-cospeptin E (20 μg) and 1 mCi [^125I] Nal was transferred to precoated IODO-GEN vials before incubation at room temperature for 4 min. The ^125I-labeled peptide was applied to a Sep-Pak C18 cartridge (Waters, Milford, Mass.) for purification and was eluted with 60% acetonitrile/0.1%TFA. The purified tracer was stored at −20° C.
(§2) Receptor binding experiments. Homogenates were prepared from different tissues of adult rats. Binding assays were performed in glass tubes. Routinely, tissue homogenates were incubated in 100 μl of binding buffer (PBS with 0.1% bovine serum albumin) for 16 h at room temperature with varying concentrations of ^125I-Tyr0-cospeptin E (100, 000 cpm˜2 nM) in the presence or absence of unlabelled Tyr0-cospeptin E (in 5,000 fold excess). After incubation, the tubes were centrifuged for 10 min at 10,000×g, and the pellet was washed twice in ice-cold PBS. Finally, Tyr0-cospeptin E bound to the tissues was counted using a gamma-spectrophotometer. Specifically bound counts were calculated by subtracting unspecific counts determined in the presence of 5,000-fold excess of nonlabeled peptide from total counts bound to the tissues. For displacement ^125I-Tyr0-cospeptin E binding, increasing concentrations of Tyr0-cospeptin E or other peptides or analogues (cospeptin E, cospeptin A, cospeptin B, cospeptin D, cospeptin F or cosmedin B) were added.

[2] = target: cospeptin E receptor in pituitary tissues; test: Saturation binding of 125I-Tyr0-cospeptin E to pituitary homogenate; settings: saturation curve, rat pituitary gland
Description: as §1
as §2, with “For displacement ^125I-Tyr0-cospeptin E binding, increasing concentrations of Tyr0-cospeptin E or other peptides or analogues (cospeptin E, cospeptin A, cospeptin B, cospeptin D, cospeptin F or cosmedin B) were added.” left out

[3] = test system: normal Sprague-Dawley rats; test: Effects of cospeptin on blood pressure and heart rate (tail-cuff method); format: in vivo, rat; settings: intraperitoneal administration, conscious normal rats
Description: Effects of cospeptin on blood pressure and heart rate in normal […] rats. Blood pressure measurements in conscious male Sprague-Dawley rats (7-9 weeks of age) were made in animals preadapted to the measurement procedure. Indirect systolic pressure was determined by a programmable NIBP system using the tail-cuff method (Columbus Instruments, Columbus, Ohio). Following attachment of the pressure transducer, rats were left undisturbed for 10 min before baseline measurements that spanned a 15-min interval. Following baseline measurements, rats were injected intraperitoneally with varying doses of hormones. Blood pressure and heart rate were monitored for 50 min at 25-sec intervals. Changes in blood pressure were calculated as the average of thirty measurements performed within each 5-min interval.

[4] = test system: C57/BL6 male mice; test: Effects of peptides on gastric emptying activity; format: in vivo, mouse; settings: intraperitoneal injection, fed mice, stomach weighed after treatment
Description: Effects of peptides on gastric emptying activity Eight-week-old C57/BL6 male mice deprived of food for 20 h were given food pellets for 90 min before intraperitoneal injection with different hormones or saline. After treatment, mice were deprived of food again and killed 90 min later. The stomach was excised at the pylorus and cardia before weighing. Gastric emptying was calculated by comparing the stomach weight of treated mice to the stomach weight of control mice killed at the time of hormone injection. The rates of gastric emptying were calculated by the formula (wet weight of stomach in fed animals killed at 0 h minus wet weight at […] after treatment/wet weight of stomach in fed animals killed at 0 h)×100.

[5] = test system: rat ileal tissue strips; test: Ileum contraction assay (organ bath, ileal muscle strips); settings: for muscle contraction of ileal strips: cumulative concentrations 10 nM to 10 μM; for magnitude of contraction relative to maximum response to muscarinic agonist 5-methylfurmethide: normalised to 5-methylfurmethide maximum
Description: Ileum contraction assay. Female rats (˜350 g) were euthanized with CO2 and the abdominal cavity was opened to expose the intestines. A 3-cm length of ileum was removed, cleared of any adhering tissue and longitudinal strips of ileal muscle (2×5 mm) were cut. On average, six preparations were obtained from each animal. The tissues were suspended in 20-ml organ baths containing Krebs-Henseleit solution maintained at 32° C. containing 2.5 mM Ca^2+ and gassed continuously with 95% O2/5% CO2. The tissues were placed under a loading tension of 1 g. The tissue was equilibrated for 90 min after which a dose response curve of the peptide of interest was obtained at 0.5 log unit cumulative incremental concentrations from 10 nM to 10 μM.

| Substance | order of affinity to the cospeptin receptors [1] | blood pressure [3] | heart rate [3] | gastric emptying activity [4] | further results |
| --- | --- | --- | --- | --- | --- |
| human cospeptin Form E, SEQ ID NO: 10, AGIVQEDVQPPGLKVWSDPFG [cospeptin E] | cospeptin E=Tyr0-cospeptin E>cospeptin A,B>>cospeptin F>>cosmedin | suppressed blood pressure | decreased heart rate | – | Kd [2]: 5 nM |
| cospeptin B: human cospeptin Form B, SEQ ID NO: 7, PLMRLEEYKKEQAINRAGIVQEDVQPPGLKVWSDPFG (KRNWTPQAMLYLKGAQGRRFLSDQSRRK) | cospeptin E=Tyr0-cospeptin E>cospeptin A,B>>cospeptin F>>cosmedin | suppressed blood pressure | – | exhibited gastric emptying activities; also recorded: effectively inhibits gastric emptying | – |
| cospeptin F: human cospeptin Form F, SEQ ID NO: 11, VWSDPFG (FYPIYFRPLLRLEEYQKEQAVNRAGIVQEDVQPPGLKVWSDPFGRK; rat) | cospeptin E=Tyr0-cospeptin E>cospeptin A,B>>cospeptin F>>cosmedin | – | – | – | – |
| cospeptin A: human cospeptin Form A, SEQ ID NO: 6, FYPIYFRPLMRLEEYKKEQAINRAGIVQEDVQPPGLKVWSDPFG (KRNWTPQAMLYLKGAQGHRFISDQSRRK) | cospeptin E=Tyr0-cospeptin E>cospeptin A,B>>cospeptin F>>cosmedin | minimal effects | decreased heart rate | – | – |
| human cosmedin Form B, SEQ ID NO: 4, NWTPQAMLYLKGAQG; presumed amidated at carboxyl terminus [cosmedin B] | cospeptin E=Tyr0-cospeptin E>cospeptin A,B>>cospeptin F>>cosmedin | – | – | effectively inhibits gastric emptying | muscle contraction of ileal strips [5]: concentration dependent muscle contraction; muscle contraction of ileal strips ([5]; listed as cosmedin-B): produced a concentration-dependent muscle contraction; also recorded: direct action of cosmedin-B on muscle contraction; magnitude of contraction relative to maximum response to muscarinic agonist 5-methylfurmethide [5]: comparable to that of the acetylcholine muscarinic receptor agonist 5-methylfurmethide; magnitude of contraction relative to maximum response to muscarinic agonist 5-methylfurmethide ([5]; listed as cosmedin-B): comparable to that mediated by the muscarinic receptor stimulation; potency pA50 ([5]; rat ileal tissue strips): 6.05±0.17; gastric emptying activity ([4]; listed as cosmedin-B): suppressed gastric emptying activity in a dose-dependent manner |
